Tests used:
[1] = system: HCT-116; experiment: Growth inhibition of human HCT116 cells incubated for 48 hrs by sulforhodamine B assay; assay type: functional; settings: HCT-116, 48 h
[2] = system: LOX IMVI; experiment: Growth inhibition of human LOXIMVI cells assessed as cell growth at 10^-7 M incubated for 48 hrs by sulforhodamine B assay relative to control; assay type: functional; settings: read-out: Activity
[3] = target: Histone deacetylase 3 (Homo sapiens, UniProt O15379); experiment: Inhibition of HDAC3 (unknown origin) by ELISA
[4] = system: CCRF-CEM; experiment: Growth inhibition of human CCRF-CEM cells assessed as cell growth at 10^-7 M incubated for 48 hrs by sulforhodamine B assay relative to control; assay type: functional; settings: read-out: Activity
[5] = system: ACHN; experiment: Growth inhibition of human ACHN cells assessed as cell growth at 10^-7 M incubated for 48 hrs by sulforhodamine B assay relative to control; assay type: functional; settings: read-out: Activity
[6] = system: OVCAR-5; experiment: Growth inhibition of human OVCAR5 cells assessed as cell growth at 10^-4 M incubated for 48 hrs by sulforhodamine B assay relative to control; assay type: functional; settings: OVCAR-5, 48 h, read-out: Activity
[7] = system: UO-31; experiment: Growth inhibition of human UO31 cells assessed as cell growth at 10^-8 M incubated for 48 hrs by sulforhodamine B assay relative to control; assay type: functional; settings: UO-31, 48 h, read-out: Activity
[8] = system: KM12; experiment: Growth inhibition of human KM12 cells assessed as cell growth at 10^-6 M incubated for 48 hrs by sulforhodamine B assay relative to control; assay type: functional; settings: KM12, 48 h, read-out: Activity
[9] = system: NCI-H322M; experiment: Growth inhibition of human NCI-H322M cells assessed as cell growth at 10^-7 M incubated for 48 hrs by sulforhodamine B assay relative to control; assay type: functional; settings: read-out: Activity
[10] = system: CAKI-1; experiment: Growth inhibition of human Caki1 cells incubated for 48 hrs by sulforhodamine B assay; assay type: functional; settings: CAKI-1, 48 h
[11] = system: HL-60; experiment: Downregulation of HDAC2 mRNA expression in human HL60 cells by qRT-PCR method relative to control; assay type: functional
[12] = system: CAKI-1; experiment: Growth inhibition of human Caki1 cells assessed as cell growth at 10^-6 M incubated for 48 hrs by sulforhodamine B assay relative to control; assay type: functional; settings: CAKI-1, 48 h, read-out: Activity
[13] = system: SR; experiment: Growth inhibition of human SR cells assessed as cell growth at 10^-7 M incubated for 48 hrs by sulforhodamine B assay relative to control; assay type: functional; settings: read-out: Activity
[14] = system: ACHN; experiment: Growth inhibition of human ACHN cells assessed as cell growth at 10^-6 M incubated for 48 hrs by sulforhodamine B assay relative to control; assay type: functional; settings: read-out: Activity
[15] = system: K562; experiment: Growth inhibition of human K562 cells assessed as cell growth at 10^-7 M incubated for 48 hrs by sulforhodamine B assay relative to control; assay type: functional; settings: K562, 48 h, read-out: Activity
[16] = system: NCI-H460; experiment: Growth inhibition of human NCI-H460 cells incubated for 48 hrs by sulforhodamine B assay; assay type: functional; settings: NCI-H460, 48 h
[17] = system: UO-31; experiment: Growth inhibition of human UO31 cells incubated for 48 hrs by sulforhodamine B assay; assay type: functional; settings: UO-31, 48 h
[18] = system: SK-MEL-2; experiment: Growth inhibition of human SK-MEL-2 cells assessed as cell growth at 10^-6 M incubated for 48 hrs by sulforhodamine B assay relative to control; assay type: functional; settings: SK-MEL-2, 48 h, read-out: Activity
[19] = system: A498; experiment: Growth inhibition of human A498 cells incubated for 48 hrs by sulforhodamine B assay; assay type: functional; settings: A498, 48 h
[20] = system: SK-MEL-28; experiment: Growth inhibition of human SK-MEL-28 cells assessed as cell growth at 10^-7 M incubated for 48 hrs by sulforhodamine B assay relative to control; assay type: functional; settings: SK-MEL-28, 48 h, read-out: Activity
[21] = system: NCI-H23; experiment: Growth inhibition of human NCI-H23 cells assessed as cell growth at 10^-7 M incubated for 48 hrs by sulforhodamine B assay relative to control; assay type: functional; settings: NCI-H23, 48 h, read-out: Activity
[22] = system: CAKI-1; experiment: Growth inhibition of human Caki1 cells assessed as cell growth at 10^-8 M incubated for 48 hrs by sulforhodamine B assay relative to control; assay type: functional; settings: CAKI-1, 48 h, read-out: Activity
[23] = system: LOX IMVI; experiment: Growth inhibition of human LOXIMVI cells incubated for 48 hrs by sulforhodamine B assay; assay type: functional
[24] = system: SR; experiment: Growth inhibition of human SR cells assessed as cell growth at 10^-8 M incubated for 48 hrs by sulforhodamine B assay relative to control; assay type: functional; settings: read-out: Activity
[25] = system: MDA-MB-435; experiment: Cell cycle arrest in human MDA-MB-435 cells assessed as accumulation at G1-phase by propidium iodide staining based flow cytometry (reference value: 69.15%); assay type: functional
[26] = system: M14; experiment: Growth inhibition of human M14 cells assessed as cell growth at 10^-5 M incubated for 48 hrs by sulforhodamine B assay relative to control; assay type: functional; settings: M14, 48 h, read-out: Activity
[27] = system: A549; experiment: Growth inhibition of human A549/ATCC cells assessed as cell growth at 10^-5 M incubated for 48 hrs by sulforhodamine B assay relative to control; assay type: functional; settings: A549, 48 h, read-out: Activity
[28] = system: MDA-MB-468; experiment: Growth inhibition of human MDA-MB-468 cells assessed as cell growth at 10^-8 M incubated for 48 hrs by sulforhodamine B assay relative to control; assay type: functional; settings: MDA-MB-468, 48 h, read-out: Activity
[29] = system: UACC-62; experiment: Growth inhibition of human UACC62 cells assessed as cell growth at 10^-7 M incubated for 48 hrs by sulforhodamine B assay relative to control; assay type: functional; settings: UACC-62, 48 h, read-out: Activity
[30] = system: HCT-15; experiment: Growth inhibition of human HCT15 cells assessed as cell growth at 10^-7 M incubated for 48 hrs by sulforhodamine B assay relative to control; assay type: functional; settings: HCT-15, 48 h, read-out: Activity
[31] = system: KM12; experiment: Growth inhibition of human KM12 cells assessed as cell growth at 10^-8 M incubated for 48 hrs by sulforhodamine B assay relative to control; assay type: functional; settings: KM12, 48 h, read-out: Activity
[32] = read-out: LC50 (the source's name)
[33] = read-out: pLC50 (the source's name) (converted)

Chain of Histone deacetylase 3 (O15379 whole entry): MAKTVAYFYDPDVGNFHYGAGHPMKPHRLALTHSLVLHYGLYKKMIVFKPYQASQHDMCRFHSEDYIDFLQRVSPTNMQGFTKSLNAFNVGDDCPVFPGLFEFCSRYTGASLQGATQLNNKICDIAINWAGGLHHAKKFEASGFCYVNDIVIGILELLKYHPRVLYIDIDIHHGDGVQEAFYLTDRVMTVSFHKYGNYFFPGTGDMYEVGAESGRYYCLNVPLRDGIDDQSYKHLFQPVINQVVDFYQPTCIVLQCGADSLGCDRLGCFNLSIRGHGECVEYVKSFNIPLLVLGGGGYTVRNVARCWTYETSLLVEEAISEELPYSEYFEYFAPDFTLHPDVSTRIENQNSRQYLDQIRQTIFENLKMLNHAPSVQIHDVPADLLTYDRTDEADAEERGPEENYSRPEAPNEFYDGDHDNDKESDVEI

`CCS/C(Nc1ccccc1)=C(\C#N)C(=O)Nc1ccc(OC)cc1` was tested, and the GI50 ([1]; read-out: GI50) was 1.95 µM, the CC50 [1, 32] was over 100 µM and the TGI ([1]; read-out: TGI) was 16.4 µM. For the same molecule, the GI50 ([1]; read-out: pGI50 (converted)) was 1.95 µM, the CC50 [1, 33] was over 100 µM and the TGI ([1]; read-out: pTGI (converted)) was 16.6 µM. The growth at 0.1 µM [2] was 96%, the IC50 [3] was 0.064 µM and the growth at 0.1 µM [4] was 83%. The growth at 0.1 µM [5] was 93%, the growth at 100 µM [6] was 23% and the growth at 0.01 µM [7] was 93%. The growth at 1 µM [8] was 68%, the growth at 0.1 µM [9] was 92% and the GI50 ([10]; read-out: GI50) was 3.39 µM. It also gave a CC50 [10, 32] of over 100 µM, a TGI ([10]; read-out: TGI) of over 100 µM and a GI50 ([10]; read-out: pGI50 (converted)) of 3.39 µM. The CC50 [10, 33] was over 100 µM, the TGI ([10]; read-out: pTGI) was over 100 µM and the “fold change (FC)” value [11] was “<=10”. The growth at 1 µM [12] was 73%, the growth at 0.1 µM [13] was 85% and the growth at 1 µM [14] was 90%. It also gave a growth at 0.1 µM [15] of 88%, a GI50 ([16]; read-out: GI50) of 3.14 µM and an LC50 ([16]; read-out: LC50) of over 100 µM. It also gave a TGI ([16]; read-out: TGI) of 34.2 µM, a GI50 ([16]; read-out: pGI50 (converted)) of 3.16 µM and an LC50 ([16]; read-out: pLC50 (converted)) of over 100 µM. It also gave a TGI ([16]; read-out: pTGI (converted)) of 33.9 µM, a GI50 ([17]; read-out: GI50) of 5.49 µM and a CC50 [17, 32] of over 100 µM. For the same molecule, the TGI ([17]; read-out: TGI) was over 100 µM, the GI50 ([17]; read-out: pGI50 (converted)) was 5.5 µM and the CC50 [17, 33] was over 100 µM. The TGI ([17]; read-out: pTGI) was over 100 µM, the growth at 1 µM [18] was 86% and the GI50 ([19]; read-out: GI50) was 2.54 µM. The CC50 [19, 32] was over 100 µM, the TGI ([19]; read-out: TGI) was 26.6 µM and the GI50 ([19]; read-out: pGI50 (converted)) was 2.57 µM. For the same molecule, the CC50 [19, 33] was over 100 µM, the TGI ([19]; read-out: pTGI (converted)) was 26.9 µM and the growth at 0.1 µM [20] was 91%. The growth at 0.1 µM [21] was 99%, the growth at 0.01 µM [22] was 90% and the GI50 ([23]; read-out: GI50) was 6.16 µM. It also gave a CC50 [23, 32] of over 100 µM, a TGI ([23]; read-out: TGI) of over 100 µM and a GI50 ([23]; read-out: pGI50 (converted)) of 6.17 µM. For the same molecule, the CC50 [23, 33] was over 100 µM, the TGI ([23]; read-out: pTGI) was over 100 µM and the growth at 0.01 µM [24] was 98%. It also gave an Activity [25] of 51.68%, a growth at 10 µM [26] of 10% and a growth at 10 µM [27] of 35%. The growth at 0.01 µM [28] was 105%, the growth at 0.1 µM [29] was 93% and the growth at 0.1 µM [30] was 88%. The growth at 0.01 µM [31] was 100%.

— ChEMBL document CHEMBL4145553, “Design, synthesis, and biological evaluation of novel amide and hydrazide based thioether analogs targeting Histone deacteylase (HDAC) enzymes” (Eur J Med Chem, 2018)
